Some test systems named below: ACHN renal; EKVX NSCLC; IGROV1 ovarian; K-562 leukemia; M14 melanoma; NCI-H226 lung; RPMI-8226 leukemia; SF-539 CNS; SK-MEL-2 melanoma; UO-31 renal.
Common to all, as to assay: NCI-60 cell line screen, 48 h

Values joined by “and” are separate entries in the source; they are usually repeats but may differ in a detail not shown here. Equal entries are not always repeated.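 Five compound concentrations were applied to cells in 96-well plates for 48 hours; endpoints were derived by simple linear interpolation of the resulting dose-response curve. At the GI50, growth is halved. TGI marks complete inhibition of growth.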

For the compound `Oc1c(CN2CCCC2)cc(CSCc2ccccc2)c2cccnc12`, the GI50 in the experiment on ACHN renal was 0.291 µM; in the experiment on EKVX NSCLC, 1.99 µM; in the experiment on IGROV1 ovarian it was 1.93 µM; with K-562 leukemia, 0.551 µM; in the experiment on M14 melanoma it was 0.397 µM; in the experiment on NCI-H226 lung, 1.11 µM. For the same compound, the GI50 was 1.42 µM in the experiment with RPMI-8226 leukemia, 1.35 µM with SF-539 CNS, 1.86 µM in the experiment with SK-MEL-2 melanoma and 0.103 µM in the experiment on UO-31 renal. Also, the TGI in the experiment with ACHN renal is 10.2 µM; in the experiment on EKVX NSCLC, 11.9 µM; with IGROV1 ovarian, 11.3 µM; with K-562 leukemia it was 10.6 µM; in the experiment on M14 melanoma, 2.59 µM; in the experiment with NCI-H226 lung, 4.8 µM. In addition, the TGI in the experiment on RPMI-8226 leukemia worked out at 6.81 µM; in the experiment with SF-539 CNS it was 3.93 µM; with SK-MEL-2 melanoma, 7.21 µM; in the experiment on UO-31 renal, 1.38 µM.
Regarding `Clc1ccc(-c2c(C3=NCCN3)nnn2-c2ccccc2)cc1`, the TGI in the experiment with ACHN renal, with EKVX NSCLC, in the experiment with IGROV1 ovarian, in the experiment on K-562 leukemia, in the experiment with M14 melanoma and in the experiment on NCI-H226 lung was over 100 µM in each case. Moreover, the TGI in the experiment on RPMI-8226 leukemia, in the experiment with SF-539 CNS, in the experiment on SK-MEL-2 melanoma and with UO-31 renal was over 100 µM each time.
For the compound `CCC[CH2][Sn]1([CH2]CCC)[O]C(=O)c2ccc(N)cc2[O]1`, the GI50 in the experiment with ACHN renal is 0.655 µM; in the experiment with EKVX NSCLC, 0.285 µM; with IGROV1 ovarian, 1.51 µM; in the experiment with K-562 leukemia, 0.111 µM; in the experiment with M14 melanoma, 0.576 µM; in the experiment with NCI-H226 lung it was 0.857 µM. The GI50 was 0.143 µM in the experiment with RPMI-8226 leukemia, 0.691 µM in the experiment with SF-539 CNS, 0.141 µM in the experiment with SK-MEL-2 melanoma and 0.465 µM in the experiment on UO-31 renal. The TGI turned out to be 1.92 µM in the experiment with ACHN renal; 2.47 µM in the experiment on EKVX NSCLC; 2.97 µM in the experiment with IGROV1 ovarian; 8.5 µM in the experiment on K-562 leukemia; 2.18 µM in the experiment with M14 melanoma; 2.64 µM with NCI-H226 lung. The TGI with RPMI-8226 leukemia amounted to 1.79 µM; in the experiment with SF-539 CNS, 1.94 µM; in the experiment with SK-MEL-2 melanoma, 0.913 µM; in the experiment with UO-31 renal, 1.82 µM.
Regarding `S=P(N1CCCC1)(N1CC1)N1CC1`, the TGI in the experiment with ACHN renal, in the experiment with EKVX NSCLC, with IGROV1 ovarian, with K-562 leukemia, in the experiment with M14 melanoma and with NCI-H226 lung was over 100 µM throughout. Further, the TGI in the experiment on RPMI-8226 leukemia, in the experiment on SF-539 CNS, in the experiment on SK-MEL-2 melanoma and in the experiment with UO-31 renal was over 100 µM each time.
In the case of `CC(/C=C/NNC1=NC(c2ccccc2)C(c2ccccc2)=NN1)Sc1ccccc1N` (stereo not drawn), the TGI with ACHN renal was 22.2 µM; with EKVX NSCLC, 32.8 µM; with IGROV1 ovarian, 30 µM; in the experiment with K-562 leukemia it was over 100 µM; with M14 melanoma, 10.6 µM; with NCI-H226 lung, 24.3 µM. In addition, the TGI was over 100 µM in the experiment on RPMI-8226 leukemia, 20.9 µM with SF-539 CNS, 21.2 µM in the experiment on SK-MEL-2 melanoma and 20.1 µM in the experiment on UO-31 renal.
Regarding `CC[C@]1(O)C[C@@H]2CN(CCc3c([nH]c4ccccc34)[C@@](C(=O)OC)(c3cc4c(cc3OC)N(C)[C@H]3[C@@](O)(C(N)=O)[C@H](O)[C@]5(CC)[C@@H]6C[C@@H]6CN6CC[C@]43[C@@H]65)C2)C1`, the GI50 with ACHN renal is 0.161 µM; in the experiment with EKVX NSCLC, 0.0624 µM; in the experiment on IGROV1 ovarian it was 0.0172 µM; in the experiment on K-562 leukemia, under 0.00333 µM; in the experiment with M14 melanoma it was 0.00605 µM; with NCI-H226 lung, 0.0382 µM. In addition, the GI50 is under 0.00333 µM in the experiment with RPMI-8226 leukemia, under 0.00333 µM in the experiment on SF-539 CNS, under 0.00333 µM with SK-MEL-2 melanoma and 0.548 µM with UO-31 renal. The TGI is over 33.3 µM in the experiment with ACHN renal; over 33.3 µM with EKVX NSCLC; over 33.3 µM in the experiment on IGROV1 ovarian; over 33.3 µM with K-562 leukemia; 0.956 µM in the experiment on M14 melanoma; over 23.7 µM in the experiment on NCI-H226 lung. The TGI was over 28.7 µM with RPMI-8226 leukemia, 0.0143 µM with SF-539 CNS and over 33.3 µM with UO-31 renal.
As to `Cc1cnc(Nc2ccc(OCCN3CCCC3)cc2)nc1Nc1cccc(S(=O)(=O)NC(C)(C)C)c1`, the GI50 in the experiment on ACHN renal is 0.0927 µM and 0.733 µM; in the experiment on IGROV1 ovarian it was 0.0833 µM and 0.558 µM; with K-562 leukemia, 0.15 µM and 0.676 µM; in the experiment on M14 melanoma, 0.19 µM and 0.61 µM; in the experiment on NCI-H226 lung, 0.146 µM and 0.813 µM; with RPMI-8226 leukemia, 1.23 µM and 1.09 µM. Further, the GI50 is 0.332 µM and 1.52 µM in the experiment on SF-539 CNS; 0.17 µM and 0.759 µM in the experiment with SK-MEL-2 melanoma; 0.221 µM and 0.656 µM with UO-31 renal. In addition, the TGI was 1.89 µM and 3.49 µM in the experiment on ACHN renal; 12.9 µM and > 10 µM in the experiment with EKVX NSCLC; 1.75 µM and 4.49 µM in the experiment with IGROV1 ovarian; over 33.6 µM in the experiment with K-562 leukemia; 3.54 µM and 6.25 µM in the experiment with M14 melanoma; 1.9 µM and 2.97 µM in the experiment on NCI-H226 lung. The TGI was 6.51 µM and > 6.61 µM in the experiment on RPMI-8226 leukemia; 2.15 µM and 4.91 µM in the experiment on SF-539 CNS; 2.68 µM and > 10 µM in the experiment with SK-MEL-2 melanoma; 1.99 µM and 2.44 µM in the experiment with UO-31 renal.
As for `N#Cc1c(C[n+]2ccccc2)c2ccccc2oc1=O`, the TGI in the experiment with ACHN renal, in the experiment with EKVX NSCLC, in the experiment on IGROV1 ovarian, in the experiment on K-562 leukemia, in the experiment on M14 melanoma and in the experiment with NCI-H226 lung was over 100 µM in each case. Also, the TGI with RPMI-8226 leukemia, in the experiment with SF-539 CNS, with SK-MEL-2 melanoma and with UO-31 renal was over 100 µM throughout.
On to `COc1nc(C)cc2c(=O)n(-c3ccccc3)n(CC(O)CN3CCN(c4ccc(Cl)cc4)CC3)c(=O)c12` (stereo not drawn), for which the GI50 with ACHN renal was 43.3 µM; in the experiment on EKVX NSCLC, over 50 µM; in the experiment with IGROV1 ovarian it was over 50 µM; with K-562 leukemia, over 50 µM; in the experiment on M14 melanoma, over 50 µM; in the experiment with NCI-H226 lung it was over 50 µM. Further, the GI50 in the experiment on RPMI-8226 leukemia is over 50 µM; in the experiment with SF-539 CNS, 22.7 µM; in the experiment with SK-MEL-2 melanoma it was 43.1 µM; with UO-31 renal it was 46.6 µM. In addition, the TGI in the experiment with ACHN renal, in the experiment with EKVX NSCLC, with IGROV1 ovarian, in the experiment with K-562 leukemia, with M14 melanoma and with NCI-H226 lung was over 50 µM each time. Also, the TGI in the experiment with RPMI-8226 leukemia, in the experiment with SF-539 CNS, in the experiment on SK-MEL-2 melanoma and with UO-31 renal was over 50 µM each time.
For `COc1ccccc1NC(=O)C1=C(C)NC(C)=C(C(=O)Nc2ccccc2OC)C1c1ccc(N(C)C)cc1`, the TGI with ACHN renal was over 100 µM; with EKVX NSCLC, over 100 µM; in the experiment with IGROV1 ovarian, over 100 µM; with K-562 leukemia it was 54.3 µM; in the experiment with M14 melanoma, 69.7 µM; in the experiment with NCI-H226 lung, 51.3 µM. Also, the TGI in the experiment on RPMI-8226 leukemia is 55.4 µM; in the experiment with SF-539 CNS, 73.7 µM; with SK-MEL-2 melanoma, 48.2 µM; in the experiment with UO-31 renal, over 100 µM.

(Values after PubChem BioAssay (NCI).)
